Assay results published in patent US20160200743A1, “BORON-CONTAINING SMALL MOLECULES AS ANTI-INFLAMMATORY AGENTS” (ANACOR PHARMACEUTICALS, INC., priority 2013, published 2016).

target: Human PDE4 (PDE4B2 truncated) (Homo sapiens, UniProt Q07343); test: Measurement of Phosphodiesterase 4 (PDE4) inhibition, zinc and barium precipitation method with 3H-cAMP; type: biochemical; conditions: PDE4B2 truncated catalytic domain, 0.3 pM enzyme, 20 min pre-incubation, 30° C. for 6 minutes
Experimental: Human PDE4 enzymatic activity was assayed using the zinc and barium precipitation method of Saldou, N. et at (1998: Cell Signal, vol 10, No. 6, pp 427-440). The assay was performed in 96-well v-bottom plates (BrandPlates, Wertheim, Germany). PDE4B2 truncated is the catalytic domain including the UCR2 and a portion of the UCR1 domain of PDE4B2 (23.4 mg/mL) from Proteros Biostructures. Final concentration of enzyme in the assay was 0.3 pM. Stocks of the tested compounds were prepared in 100% DMSO at a concentration of 40 mM. The 105-μL reaction volume consisted of 45 mM Tris-HCl, pH 7.5, 12.5 mM MgSO4, 1.5 μM […] (Sigma, St Louis, Mo.) supplemented with 0.15 μM ^3H-cAMP (Perkin Elmer, Waltham, Mass.). Compounds were pre-incubated with enzyme at room temperature for 20 min prior to initiating the reaction by adding substrate (cAMP supplemented with ^3H-cAMP). After incubation at 30° C. for 6 minutes, the reaction was stopped by the addition of 50 μL fresh made 21.5 mM ZnSO4.7H2O (Alfa Aesar, Ward Hill, Mass.) containing 5 mM AMP as a co-precipitant. Total AMP was precipitated by the addition of 50 μL 17.5 mM Ba(OH)2, prepared fresh daily in autoclaved MilliQ water. 180 uL of well-mixed precipitate was transferred and collected by filtration (Millipore Multiscreen; MSFBN6B50). The plates were washed five times with cold wash solution (1 mM NaOH, 100 mM NaCl) and dried for 30 min to 1 hour at 65±10° C. or overnight at room temperature. The bottoms of plates were sealed with clear tapes (Millipore Co-operation, Billerica, Mass.) and 50±10 μL of scintillation cocktail (Perkin Elmer Waltham, Mass.) was added. The plates were top sealed and radioactivity was measured with scintillation counter.

Chain of Human PDE4 (PDE4B2 truncated) (Q07343 212-659 limits assumed): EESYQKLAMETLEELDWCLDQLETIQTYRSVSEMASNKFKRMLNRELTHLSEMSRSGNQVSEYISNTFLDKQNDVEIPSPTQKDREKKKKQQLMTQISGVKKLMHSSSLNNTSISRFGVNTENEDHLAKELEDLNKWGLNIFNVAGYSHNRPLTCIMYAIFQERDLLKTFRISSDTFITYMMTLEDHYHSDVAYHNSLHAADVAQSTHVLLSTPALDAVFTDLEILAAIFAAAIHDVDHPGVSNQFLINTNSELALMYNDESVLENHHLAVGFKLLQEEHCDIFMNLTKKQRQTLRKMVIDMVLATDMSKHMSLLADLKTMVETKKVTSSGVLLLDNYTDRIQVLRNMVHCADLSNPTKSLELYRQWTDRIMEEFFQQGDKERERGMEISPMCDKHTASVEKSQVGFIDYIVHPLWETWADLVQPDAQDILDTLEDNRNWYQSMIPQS

**Q.** Which IC50 does the source give for `N#Cc1ccc(C(=O)c2ccc3c(c2)COB3O)cc1` [A, 4-(1-hydroxy-1,3-dihydrobenzo[c][1,2]oxaborole-5-carbonyl)benzonitrile] here?
**A.** The IC50 was 427 nM.

**Q.** For `N#Cc1ccc(C(O)c2ccc3c(c2)COB3O)cc1` (stereo not drawn) [B, 4-(hydroxy(1-hydroxy-1,3-dihydrobenzo[c][1,2]oxaborol-5-yl)methyl)benzonitrile], which IC50 is on record?
**A.** The IC50 was 3090 nM.

**Q.** For `N#Cc1ccc([S+]([O-])c2ccc3c(c2)COB3O)cc1` (stereo not drawn) [D, 4-(1-hydroxy-1,3-dihydrobenzo[c][1,2]oxaborol-5-ylsulfinyl)benzonitrile], which IC50 is on record?
**A.** The IC50 was 47 nM.
